PMC5761851, “Application of a phenotypic drug discovery strategy to identify biological and chemical starting points for inhibition of TSLP production in lung epithelial cells” (PLoS ONE, 2018)

Columns and labels:
Experiment in all cases: kinase selectivity panel
Assay type in all cases: biochemical
Flt1 = molecular target: T1, Flt1 (Homo sapiens, UniProt P17948); settings: read-out: percentage of control activity (POC), Flt1
T1 construct: purchased Eurofins Pharma Discovery Services (KinaseProfiler; Cerep BioPrint panel)
In short: (§1)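 Single-point screen: 10 μM, duplicate, 125-kinase panel; follow-up IC50 from 9-point titration in duplicate for chosen hits.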

FAK = molecular target: T2, FAK (Homo sapiens, UniProt Q05397); settings: read-out: percentage of control activity (POC), FAK
T2 construct: purchased Eurofins Pharma Discovery Services (KinaseProfiler; Cerep BioPrint panel)
In short: as §1

IRAK4 = molecular target: T3, IRAK4 (Homo sapiens, UniProt Q9NWZ3); settings: read-out: percentage of control activity (POC), IRAK4
T3 construct: purchased Eurofins Pharma Discovery Services (KinaseProfiler; Cerep BioPrint panel)
T3 sequence (Q9NWZ3 1-460): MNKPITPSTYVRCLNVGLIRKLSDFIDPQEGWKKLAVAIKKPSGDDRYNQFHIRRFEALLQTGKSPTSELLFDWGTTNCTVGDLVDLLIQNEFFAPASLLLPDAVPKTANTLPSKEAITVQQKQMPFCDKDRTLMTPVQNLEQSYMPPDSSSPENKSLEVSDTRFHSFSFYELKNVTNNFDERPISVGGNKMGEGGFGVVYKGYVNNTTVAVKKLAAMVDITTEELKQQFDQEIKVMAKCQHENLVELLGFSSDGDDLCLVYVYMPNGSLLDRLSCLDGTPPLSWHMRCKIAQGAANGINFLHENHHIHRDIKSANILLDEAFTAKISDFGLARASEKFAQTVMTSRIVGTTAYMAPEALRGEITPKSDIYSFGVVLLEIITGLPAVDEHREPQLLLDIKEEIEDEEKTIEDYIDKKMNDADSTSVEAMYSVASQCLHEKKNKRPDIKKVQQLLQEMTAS
In short: as §1

eEF-2K = molecular target: T4, eEF-2K (Homo sapiens, UniProt O00418); settings: read-out: percentage of control activity (POC), eEF-2K
T4 construct: purchased Eurofins Pharma Discovery Services (KinaseProfiler; Cerep BioPrint panel)
In short: as §1

EGFR = molecular target: T5, EGFR (Homo sapiens, UniProt P00533); settings: read-out: percentage of control activity (POC), EGFR
T5 construct: purchased Eurofins Pharma Discovery Services (KinaseProfiler; Cerep BioPrint panel)
In short: as §1

GSK3β = molecular target: T6, GSK3β (Homo sapiens, UniProt P49841); settings: read-out: percentage of control activity (POC), GSK3β
T6 construct: purchased Eurofins Pharma Discovery Services (KinaseProfiler; Cerep BioPrint panel)
In short: as §1

NLK = molecular target: T7, NLK (Homo sapiens, UniProt Q9UBE8); settings: read-out: percentage of control activity (POC), NLK
T7 construct: purchased Eurofins Pharma Discovery Services (KinaseProfiler; Cerep BioPrint panel)
T7 sequence (Q9UBE8 1-527): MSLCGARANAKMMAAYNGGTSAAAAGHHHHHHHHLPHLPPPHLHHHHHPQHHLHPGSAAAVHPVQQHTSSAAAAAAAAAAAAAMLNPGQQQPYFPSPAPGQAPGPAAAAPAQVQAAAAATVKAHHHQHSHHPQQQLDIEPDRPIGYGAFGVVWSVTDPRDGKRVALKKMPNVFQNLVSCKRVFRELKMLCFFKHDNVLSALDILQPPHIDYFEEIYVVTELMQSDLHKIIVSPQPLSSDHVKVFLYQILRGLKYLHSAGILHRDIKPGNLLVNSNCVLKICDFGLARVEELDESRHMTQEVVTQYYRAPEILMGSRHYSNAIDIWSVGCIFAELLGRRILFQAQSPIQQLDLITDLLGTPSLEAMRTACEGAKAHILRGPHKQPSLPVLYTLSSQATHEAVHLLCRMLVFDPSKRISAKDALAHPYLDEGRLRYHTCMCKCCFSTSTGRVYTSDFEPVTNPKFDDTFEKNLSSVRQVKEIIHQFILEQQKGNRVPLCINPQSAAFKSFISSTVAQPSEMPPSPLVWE
In short: as §1

Hck = molecular target: T8, Hck (Homo sapiens, UniProt P08631); settings: for remaining activity at 10 µM: read-out: percentage of control activity (POC), Hck
T8 construct: Eurofins Pharma Discovery Services (contract assay service)
In short: as §1

cSRC = molecular target: T9, cSRC (Homo sapiens, UniProt P12931); settings: read-out: percentage of control activity (POC), cSRC
T9 construct: purchased Eurofins Pharma Discovery Services (KinaseProfiler; Cerep BioPrint panel)
In short: as §1

CDK9/cyclin T1 = molecular target: T10, CDK9/cyclin T1 (Homo sapiens, UniProt P50750); settings: read-out: percentage of control activity (POC), CDK9/cyclin T1
T10 construct: purchased Eurofins Pharma Discovery Services (KinaseProfiler; Cerep BioPrint panel)
In short: as §1

DDR2 = molecular target: T11, DDR2 (Homo sapiens, UniProt Q16832); settings: for remaining activity at 10 µM: read-out: percentage of control activity (POC), DDR2
T11 construct: purchased Eurofins Pharma Discovery Services (KinaseProfiler; Cerep BioPrint panel)
T11 sequence (Q16832 22-855): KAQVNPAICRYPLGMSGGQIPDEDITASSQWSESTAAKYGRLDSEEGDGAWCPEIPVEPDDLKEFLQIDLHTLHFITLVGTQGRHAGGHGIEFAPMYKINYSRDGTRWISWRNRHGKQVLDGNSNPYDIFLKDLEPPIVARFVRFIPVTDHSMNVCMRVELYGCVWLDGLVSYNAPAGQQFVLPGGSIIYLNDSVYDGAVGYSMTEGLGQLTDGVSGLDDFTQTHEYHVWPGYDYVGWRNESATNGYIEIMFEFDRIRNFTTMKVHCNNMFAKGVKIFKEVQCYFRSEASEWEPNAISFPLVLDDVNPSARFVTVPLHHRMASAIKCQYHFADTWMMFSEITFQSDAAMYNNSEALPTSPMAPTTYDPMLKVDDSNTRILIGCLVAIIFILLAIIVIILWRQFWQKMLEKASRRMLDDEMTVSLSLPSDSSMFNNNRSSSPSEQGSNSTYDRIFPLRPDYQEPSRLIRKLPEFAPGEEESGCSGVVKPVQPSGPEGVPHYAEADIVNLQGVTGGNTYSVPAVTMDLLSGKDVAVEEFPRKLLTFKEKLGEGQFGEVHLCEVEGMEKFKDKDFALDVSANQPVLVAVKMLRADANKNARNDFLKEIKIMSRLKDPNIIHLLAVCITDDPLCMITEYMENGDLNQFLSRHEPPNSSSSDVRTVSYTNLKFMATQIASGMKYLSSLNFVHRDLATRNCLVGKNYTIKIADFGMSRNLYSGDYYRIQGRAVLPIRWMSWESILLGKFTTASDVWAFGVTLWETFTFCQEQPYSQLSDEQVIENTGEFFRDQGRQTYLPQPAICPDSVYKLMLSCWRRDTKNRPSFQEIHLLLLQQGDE
In short: as §1

Tie2 = molecular target: T12, Tie2 (Homo sapiens, UniProt Q02763); settings: for remaining activity at 10 µM: read-out: percentage of control activity (POC), Tie2
T12 construct: purchased Eurofins Pharma Discovery Services (KinaseProfiler; Cerep BioPrint panel)
In short: as §1

PI3K (p110d/p85a) = molecular target: T13, PI3K (p110d/p85a) (Homo sapiens, UniProt O00329); settings: for remaining activity at 10 µM: read-out: percentage of control activity (POC), PI3K (p110d/p85a)
T13 construct: Eurofins Pharma Discovery Services (contract assay service)
In short: as §1

T9 sequence (P12931 whole entry): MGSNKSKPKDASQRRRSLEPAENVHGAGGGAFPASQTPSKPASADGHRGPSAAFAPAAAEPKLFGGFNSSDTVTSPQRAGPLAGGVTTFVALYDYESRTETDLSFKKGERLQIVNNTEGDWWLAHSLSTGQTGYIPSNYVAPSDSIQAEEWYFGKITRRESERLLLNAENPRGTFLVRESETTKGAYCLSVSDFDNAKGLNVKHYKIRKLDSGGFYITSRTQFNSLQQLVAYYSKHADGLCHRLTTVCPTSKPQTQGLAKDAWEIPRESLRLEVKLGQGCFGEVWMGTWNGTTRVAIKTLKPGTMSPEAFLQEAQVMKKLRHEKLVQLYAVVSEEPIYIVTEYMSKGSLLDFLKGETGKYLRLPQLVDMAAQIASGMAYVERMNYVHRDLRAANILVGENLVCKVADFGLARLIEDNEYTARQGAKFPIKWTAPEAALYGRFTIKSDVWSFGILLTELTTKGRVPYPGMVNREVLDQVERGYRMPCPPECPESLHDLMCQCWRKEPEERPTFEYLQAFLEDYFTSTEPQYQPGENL
T5 sequence (P00533 25-1210): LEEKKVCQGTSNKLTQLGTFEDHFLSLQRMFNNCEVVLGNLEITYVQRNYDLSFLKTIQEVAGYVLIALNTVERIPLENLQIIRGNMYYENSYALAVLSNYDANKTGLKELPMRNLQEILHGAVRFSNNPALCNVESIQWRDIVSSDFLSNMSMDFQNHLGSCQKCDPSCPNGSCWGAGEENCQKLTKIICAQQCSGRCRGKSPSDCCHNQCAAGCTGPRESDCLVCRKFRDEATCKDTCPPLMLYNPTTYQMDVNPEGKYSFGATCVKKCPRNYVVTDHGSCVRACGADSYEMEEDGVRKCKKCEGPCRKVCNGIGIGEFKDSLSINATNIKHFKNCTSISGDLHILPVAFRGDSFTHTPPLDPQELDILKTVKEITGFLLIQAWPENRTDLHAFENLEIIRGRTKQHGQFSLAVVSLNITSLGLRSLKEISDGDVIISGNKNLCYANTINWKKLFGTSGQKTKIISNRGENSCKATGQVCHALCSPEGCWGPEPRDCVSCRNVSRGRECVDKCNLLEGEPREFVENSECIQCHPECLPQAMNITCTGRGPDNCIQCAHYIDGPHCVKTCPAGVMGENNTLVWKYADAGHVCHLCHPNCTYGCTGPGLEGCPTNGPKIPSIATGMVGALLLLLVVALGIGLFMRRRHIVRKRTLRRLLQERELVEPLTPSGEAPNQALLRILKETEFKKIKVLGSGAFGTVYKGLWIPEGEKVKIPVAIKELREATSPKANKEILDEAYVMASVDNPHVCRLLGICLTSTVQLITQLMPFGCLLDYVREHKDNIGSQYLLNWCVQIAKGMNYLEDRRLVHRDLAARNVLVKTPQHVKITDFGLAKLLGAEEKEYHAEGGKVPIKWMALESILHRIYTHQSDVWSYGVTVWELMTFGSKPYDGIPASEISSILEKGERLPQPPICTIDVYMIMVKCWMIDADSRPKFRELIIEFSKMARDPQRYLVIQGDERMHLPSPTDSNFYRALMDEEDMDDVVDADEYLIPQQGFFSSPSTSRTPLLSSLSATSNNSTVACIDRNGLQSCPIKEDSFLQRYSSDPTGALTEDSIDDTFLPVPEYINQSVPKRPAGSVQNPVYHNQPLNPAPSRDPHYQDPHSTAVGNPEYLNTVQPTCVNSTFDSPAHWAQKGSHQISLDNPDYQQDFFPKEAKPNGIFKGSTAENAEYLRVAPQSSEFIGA
T12 sequence (Q02763 23-1124): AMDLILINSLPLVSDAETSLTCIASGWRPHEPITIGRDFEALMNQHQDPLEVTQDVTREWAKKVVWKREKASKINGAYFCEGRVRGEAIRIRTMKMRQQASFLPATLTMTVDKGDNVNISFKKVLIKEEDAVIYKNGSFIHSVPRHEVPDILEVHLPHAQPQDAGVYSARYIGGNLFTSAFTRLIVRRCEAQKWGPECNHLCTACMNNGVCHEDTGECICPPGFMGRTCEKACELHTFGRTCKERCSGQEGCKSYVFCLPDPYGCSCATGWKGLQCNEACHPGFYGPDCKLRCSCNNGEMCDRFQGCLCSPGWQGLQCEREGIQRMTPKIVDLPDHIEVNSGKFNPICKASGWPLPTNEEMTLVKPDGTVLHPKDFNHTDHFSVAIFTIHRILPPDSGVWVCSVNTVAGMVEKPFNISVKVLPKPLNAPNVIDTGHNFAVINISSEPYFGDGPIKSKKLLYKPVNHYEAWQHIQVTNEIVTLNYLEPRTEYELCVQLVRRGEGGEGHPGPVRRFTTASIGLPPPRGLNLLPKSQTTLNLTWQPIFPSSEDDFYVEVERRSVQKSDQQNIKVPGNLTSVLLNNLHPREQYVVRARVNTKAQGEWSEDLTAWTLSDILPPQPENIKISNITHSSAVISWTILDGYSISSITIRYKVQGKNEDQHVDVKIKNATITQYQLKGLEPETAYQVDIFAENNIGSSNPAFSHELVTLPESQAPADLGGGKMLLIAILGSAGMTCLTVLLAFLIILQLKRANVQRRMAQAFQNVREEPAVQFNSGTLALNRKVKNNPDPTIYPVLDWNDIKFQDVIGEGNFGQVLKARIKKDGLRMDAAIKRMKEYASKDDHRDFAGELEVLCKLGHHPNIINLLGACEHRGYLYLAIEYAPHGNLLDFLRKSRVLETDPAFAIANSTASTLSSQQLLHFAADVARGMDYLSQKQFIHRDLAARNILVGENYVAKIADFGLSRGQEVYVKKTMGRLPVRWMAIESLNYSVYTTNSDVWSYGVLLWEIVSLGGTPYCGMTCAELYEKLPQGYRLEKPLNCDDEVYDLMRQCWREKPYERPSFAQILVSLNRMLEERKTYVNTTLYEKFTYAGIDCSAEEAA
T1 sequence (P17948 27-1338): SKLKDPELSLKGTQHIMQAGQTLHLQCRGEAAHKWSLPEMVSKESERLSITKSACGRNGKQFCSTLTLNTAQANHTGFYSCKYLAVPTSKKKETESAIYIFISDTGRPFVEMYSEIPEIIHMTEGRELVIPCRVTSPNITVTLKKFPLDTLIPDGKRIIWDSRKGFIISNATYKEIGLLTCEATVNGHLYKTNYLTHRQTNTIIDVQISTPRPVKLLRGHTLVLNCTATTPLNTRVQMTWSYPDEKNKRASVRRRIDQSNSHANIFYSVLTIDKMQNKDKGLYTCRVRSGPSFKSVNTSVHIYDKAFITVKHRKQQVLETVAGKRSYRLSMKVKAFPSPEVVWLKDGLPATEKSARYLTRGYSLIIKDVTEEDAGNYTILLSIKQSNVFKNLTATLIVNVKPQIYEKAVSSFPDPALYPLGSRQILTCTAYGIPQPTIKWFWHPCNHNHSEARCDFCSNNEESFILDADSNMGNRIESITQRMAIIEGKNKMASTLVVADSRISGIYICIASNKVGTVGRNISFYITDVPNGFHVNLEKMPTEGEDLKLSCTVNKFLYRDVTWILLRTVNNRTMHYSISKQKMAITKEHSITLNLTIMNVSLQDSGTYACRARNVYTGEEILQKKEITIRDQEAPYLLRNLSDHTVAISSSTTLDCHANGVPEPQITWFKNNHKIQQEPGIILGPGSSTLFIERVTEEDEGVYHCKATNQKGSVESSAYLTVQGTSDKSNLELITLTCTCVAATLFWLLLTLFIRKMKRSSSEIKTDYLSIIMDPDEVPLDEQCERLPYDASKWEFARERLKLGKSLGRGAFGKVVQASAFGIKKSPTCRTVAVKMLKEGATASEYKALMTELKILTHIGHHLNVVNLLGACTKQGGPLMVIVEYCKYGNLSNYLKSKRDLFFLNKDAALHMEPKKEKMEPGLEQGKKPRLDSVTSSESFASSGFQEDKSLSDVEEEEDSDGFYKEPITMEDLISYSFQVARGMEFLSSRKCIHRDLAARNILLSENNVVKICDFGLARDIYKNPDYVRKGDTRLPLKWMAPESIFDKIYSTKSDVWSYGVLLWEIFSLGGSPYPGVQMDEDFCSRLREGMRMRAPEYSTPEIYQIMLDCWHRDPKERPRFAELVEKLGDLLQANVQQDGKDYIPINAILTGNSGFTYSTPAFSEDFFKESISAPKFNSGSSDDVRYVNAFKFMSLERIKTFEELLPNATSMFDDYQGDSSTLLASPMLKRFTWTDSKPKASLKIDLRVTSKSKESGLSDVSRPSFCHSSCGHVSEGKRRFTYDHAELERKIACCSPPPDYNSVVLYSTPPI
T8 sequence (P08631 whole entry, species assumed): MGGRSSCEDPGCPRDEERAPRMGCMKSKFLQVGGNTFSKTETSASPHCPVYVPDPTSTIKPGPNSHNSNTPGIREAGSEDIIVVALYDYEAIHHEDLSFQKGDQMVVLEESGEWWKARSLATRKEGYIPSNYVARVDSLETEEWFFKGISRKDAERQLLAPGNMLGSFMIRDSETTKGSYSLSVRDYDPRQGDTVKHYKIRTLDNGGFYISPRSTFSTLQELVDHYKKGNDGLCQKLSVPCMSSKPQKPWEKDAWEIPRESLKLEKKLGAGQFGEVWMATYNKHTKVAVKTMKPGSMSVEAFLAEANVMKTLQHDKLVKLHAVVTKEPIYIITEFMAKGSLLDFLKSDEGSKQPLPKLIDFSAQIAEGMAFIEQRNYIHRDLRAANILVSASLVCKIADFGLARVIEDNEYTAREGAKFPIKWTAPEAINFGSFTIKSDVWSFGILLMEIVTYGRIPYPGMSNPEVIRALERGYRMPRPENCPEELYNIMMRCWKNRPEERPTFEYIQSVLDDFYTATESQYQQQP
T6 sequence (P49841 whole entry): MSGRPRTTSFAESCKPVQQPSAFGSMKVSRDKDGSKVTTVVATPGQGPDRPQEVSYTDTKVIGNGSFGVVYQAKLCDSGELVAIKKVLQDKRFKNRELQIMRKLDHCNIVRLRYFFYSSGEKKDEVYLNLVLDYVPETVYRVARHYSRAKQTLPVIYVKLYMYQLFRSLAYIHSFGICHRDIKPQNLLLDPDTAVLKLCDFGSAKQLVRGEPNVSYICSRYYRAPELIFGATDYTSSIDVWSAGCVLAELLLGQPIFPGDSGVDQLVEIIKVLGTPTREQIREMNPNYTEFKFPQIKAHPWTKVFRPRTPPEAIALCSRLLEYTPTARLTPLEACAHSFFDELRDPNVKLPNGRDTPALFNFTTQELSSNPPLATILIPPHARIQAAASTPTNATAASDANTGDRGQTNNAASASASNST

| SMILES | remaining activity at 10 µM (Flt1) | remaining activity at 10 µM (FAK) | remaining activity at 10 µM (IRAK4) | remaining activity at 10 µM (eEF-2K) | remaining activity at 10 µM (EGFR) | remaining activity at 10 µM (GSK3β) | remaining activity at 10 µM (NLK) | remaining activity at 10 µM (Hck; 10 μM) | remaining activity at 10 µM (cSRC) | remaining activity at 10 µM (CDK9/cyclin T1) | remaining activity at 10 µM (DDR2) | remaining activity at 10 µM (Tie2) | remaining activity at 10 µM (PI3K (p110d/p85a); 10 μM) | inhibition at 10 µM (Tie2) | inhibition at 10 µM (Hck; 10 μM) | IC50 (Hck; biochemical dose response, duplicate, read-out: Inhibition of indicated activity (IC50, μM): Hck) | inhibition at 10 µM (DDR2) | inhibition at 10 µM (PI3K (p110d/p85a); 10 μM, read-out: inhibition of PI3K (p110δ/p85α)) | IC50 (PI3K (p110d/p85a); biochemical dose response, duplicate, read-out: Inhibition of indicated activity (IC50, μM): PI3K (p110δ/p85α)) |
| --- | --- | --- | --- | --- | --- | --- | --- | --- | --- | --- | --- | --- | --- | --- | --- | --- | --- | --- | --- |
| CC(C)(C)N1CCC(c2cc(-c3ccc(F)cc3Cl)c3cc[n+]([O-])c(-c4c(Cl)cccc4Cl)c3n2)CC1 [compound 2] | 114% | 111% | 95% | 115% | 96% | 99% | 86% | 84% | 107% | 96% | 94% | 79% | 93% | – | – | – | – | – | – |
| Cn1cc(-c2cccc(-c3nc(C(=O)NC4C5CC6CC4CC(O)(C6)C5)c(N)nc3N)c2)cn1 (stereo not drawn) [compound 4] | 84% | 99% | 82% | 115% | 95% | 105% | 85% | 47% | 69% | 95% | 47% | 76% | 21% | – | 53% | 3.58 µM | 53% | 79% | 0.233 µM |
| CS(=O)(=O)N1CCN(c2ccc(Nc3ncc(C(N)=O)c(NC4CC4)n3)cc2)CC1 [compound 5] | -3% | 1% | 13% | 97% | 87% | 25% | 83% | 7% | 16% | 56% | 28% | 42% | 90% | – | – | – | – | – | – |

Further lines, with some results ahead:

| remaining activity at 10 µM (Flt1) | remaining activity at 10 µM (FAK) | remaining activity at 10 µM (IRAK4) | remaining activity at 10 µM (eEF-2K) | remaining activity at 10 µM (EGFR) | remaining activity at 10 µM (GSK3β) | remaining activity at 10 µM (NLK) | remaining activity at 10 µM (Hck; 10 μM) | remaining activity at 10 µM (cSRC) | remaining activity at 10 µM (CDK9/cyclin T1) | remaining activity at 10 µM (DDR2) | remaining activity at 10 µM (Tie2) | remaining activity at 10 µM (PI3K (p110d/p85a); 10 μM) | inhibition at 10 µM (Tie2) | SMILES | inhibition at 10 µM (Hck; 10 μM) | IC50 (Hck; biochemical dose response, duplicate, read-out: Inhibition of indicated activity (IC50, μM): Hck) | inhibition at 10 µM (DDR2) | inhibition at 10 µM (PI3K (p110d/p85a); 10 μM, read-out: inhibition of PI3K (p110δ/p85α)) | IC50 (PI3K (p110d/p85a); biochemical dose response, duplicate, read-out: Inhibition of indicated activity (IC50, μM): PI3K (p110δ/p85α)) |
| --- | --- | --- | --- | --- | --- | --- | --- | --- | --- | --- | --- | --- | --- | --- | --- | --- | --- | --- | --- |
| 128% | 99% | 92% | 111% | 91% | 104% | 99% | 87% | 103% | 85% | 71% | 96% | 90% | – | Cc1ccc(C(=O)NCC2CC2)cc1-c1ccc2c(c1)NC(=O)C21CCCC1 [compound 3] | – | – | – | – | – |
| 80% | 104% | 118% | 128% | 104% | 117% | 94% | 84% | 103% | 97% | 3% | 27% | 90% | 83% | COc1c(NC(=O)c2ccc(C)c(-c3nnc4c(NCC(C)(C)C)nccn34)c2)cc(C(C)(C)C)cc1NS(C)(=O)=O [compound 7, reference compound] | – | – | 97% | – | – |
